What is called LD50 is the dose at which mortality reaches 50%.

The source of these data is patent US4382142A, “Thiadiazole derivatives and process for preparing same” (Kowa Co., Ltd., priority 1978, dated 1983).

The nature of data set [1]: Acute toxicity (LD50, Litchfield-Wilcoxon method) after intraperitoneal injection in ddy mice. The following applies: mouse, in vivo, ip. On the procedure:
The median lethal dose (LD50) of each of the test compounds was
determined by the LitchfieldWilcoxon method after the intraperitoneal
injection of the compound into ddy mice.

A further data set relates to P388 leukemia. The experiment in a line: Antitumor test: survival of CDF1 mice inoculated intraperitoneally with P388 leukemia. The conditions noted are these: Mus musculus, ip, i.p., 24 hours and 5 days after inoculation, 10^6 P388 i.p., read-out: Survival Effect (survival days of treated relative to control animals); for response vs control in vivo at 200 mg/kg: 200 mg/kg/day; for response vs control in vivo at 400 mg/kg: 400 mg/kg/day. In kind it is in vivo. Here is the method: Each experimental group was composed of six CDF1 mice. The mice were
inoculated intraperitoneally with 10^6 P388 leukemia, and the test
compounds dissolved in a physiological salt solution were administered
intraperitoneally to the animals 24 hours and 5 days, respectively, after
the inoculation. The survival effect of each of the compounds was
expressed by the percentage of the survival days of the treated animals i
each group relative to those of the control animals.

Setting [2] is: intraperitoneal, ddy mice, read-out: Acute Toxicity LD50.

Structures can show the parent of a compound that is named as a salt. Where two headings read alike, the source gives them in different places.

Turning to `NC1(C(=O)Nc2nncs2)CCCC1` [J, 2Cycloleucylamino-1,3,4-thiadiazole.hydrochloride], the LD50 in data set [1] amounted to 165 mg/kg. Also, the response vs control in vivo at 100 mg/kg in the data set with P388 leukemia (100 mg/kg/day) worked out at 153%.

In the case of `CC(C)CC(N)C(=O)Nc1nncs1` (stereo not drawn) [A, 2DL-Leucylamino-1,3,4-thiadiazole.hydrochloride], the median lethal dose (LD50) in data set [1] is more than 1600 mg/kg. Further, in the data set on P388 leukemia, the response vs control in vivo at 200 mg/kg worked out at 141% and the response vs control in vivo at 400 mg/kg is 154%.

In the case of `CSCCC(N)C(=O)Nc1nncs1` (stereo not drawn) [H, 2DL-Methionylamino-1,3,4-thiadiazole.hydrochloride], in data set [1], the LD50 was more than 1600 mg/kg. Moreover, in the data set with P388 leukemia, the response vs control in vivo at 200 mg/kg was determined as 121% and the response vs control in vivo at 400 mg/kg is 124%.

In data set [1], `NC(C(=O)Nc1nncs1)c1ccccc1` (stereo not drawn) [I, 2Dl-Phenylglycylamino-1,3,4-thiadiazole.hydrobromide] gave an LD50 of more than 1600 mg/kg. In addition, in the data set with P388 leukemia, the response vs control in vivo at 200 mg/kg stood at 125% and the response vs control in vivo at 400 mg/kg was 146%.

As for `CC(C)[C@H](N)C(=O)Nc1nncs1` [F, 2L-Valylamino-1,3,4-thiadiazole.hydrochloride], the 50% lethal dose (LD50) in data set [1] was more than 500 mg/kg. Further, in the data set with P388 leukemia, the response vs control in vivo at 200 mg/kg worked out at 183% and the response vs control in vivo at 400 mg/kg was 190%.

In the case of `CCC(C)C(N)C(=O)Nc1nncs1` (stereo not drawn) [D, 2DL-Isoleucylamino-1,3,4-thiadiazole.dihydrochloride], in data set [1], the 50% lethal dose (LD50) stood at 357 mg/kg. Further, the response vs control in vivo at 200 mg/kg in the data set on P388 leukemia is 157%.

In data set [1], `CC(C)[C@@H](N)C(=O)Nc1nncs1` [G, 2D-Valylamino-1,3,4-thiadiazole.hydrochloride] displayed an LD50 of more than 500 mg/kg. Besides, in the data set with P388 leukemia, the response vs control in vivo at 200 mg/kg is 93% and the response vs control in vivo at 400 mg/kg stood at 102%.

With `CC(C)C(N)C(=O)Nc1nncs1` (stereo not drawn) [E, 2DL-Valylamino-1,3,4-thiadiazole.hydrochloride], the LD50 in data set [1] is more than 1600 mg/kg. Further, in the data set with P388 leukemia, the response vs control in vivo at 200 mg/kg is 143% and the response vs control in vivo at 400 mg/kg was 155%.

With `CC(C)C[C@H](N)C(=O)Nc1nncs1` [B, 2L-Leucylamino-1,3,4-thiadiazole.hydrochloride], in data set [1], the LD50 was more than 500 mg/kg. Besides, in the data set on P388 leukemia, the response vs control in vivo at 200 mg/kg worked out at 144% and the response vs control in vivo at 400 mg/kg was determined as 161%.

Turning to `CC(C)C[C@@H](N)C(=O)Nc1nncs1` [C, 2D-Leucylamino-1,3,4-thiadiazole.hydrochloride], the LD50 in data set [1] is more than 500 mg/kg. Further, in the data set with P388 leukemia, the response vs control in vivo at 200 mg/kg stood at 116% and the response vs control in vivo at 400 mg/kg turned out to be 157%.

In the case of `N[C@@H](Cc1ccccc1)C(=O)Nc1nncs1` [M, 2L-Phenylalanylamino-1,3,4-thiadiazole.hydrobromide], the median lethal dose (LD50) in data set [1] (setting [2]) was 1200 mg/kg. Further, in the data set with P388 leukemia, the response vs control in vivo at 200 mg/kg stood at 145% and the response vs control in vivo at 400 mg/kg amounted to 156%.

As for `N[C@@H](Cc1c[nH]c2ccccc12)C(=O)Nc1nncs1` [L, 2L-Tryptophylamino-1,3,4-thiadiazole.hydrochloride], the 50% lethal dose (LD50) in data set [1] (setting [2]) was determined as 1200 mg/kg. Moreover, in the data set on P388 leukemia, the response vs control in vivo at 200 mg/kg was found to be 143% and the response vs control in vivo at 400 mg/kg is 151%.

Turning to `N[C@@H](CC(=O)O)C(=O)Nc1nncs1` [K, 2L-Aspartylamino-1,3,4-thiadiazole.monohydrate], the median lethal dose (LD50) in data set [1] was more than 1600 mg/kg. In the data set with P388 leukemia (460 mg/kg/day), the response vs control in vivo at 460 mg/kg worked out at 116%. The response vs control in vivo at 600 mg/kg in the data set with P388 leukemia (600 mg/kg/day) was 119%.
